Here are results for one substance from patent US20230292758A1, “COMPOSITIONS AND METHODS FOR CONTROLLLING FUNGAL DISEASES IN PLANTS” (priority 2020, published 2023).

Series [1] is described as follows: Relative lipopeptide levels in supernatants by LC-MS. Type of series: physicochemical. The settings on record: Example 4. How it is done:
Bacillus subtilis QST713 WB and Bacillus subtilis QST713 BC were prepared as described in the previous examples. […] Combinations of Bacillus subtilis QST713 BC with 3% (w/w) ANS or 5% (w/w) ANS were also prepared. […] To determine relative amounts of lipopeptides in the combinations samples were centrifuged to obtain the supernatant layer relatively free of spores. It was then filtered and separated on an analytical HPLC column and detected with a mass spectrometer (i.e., via LC-MS).
Peaks containing lipopeptides were identified by analysis of mass to charge (m/z) ratios. For example, “Iturin_1043_B” corresponds with an iturin peak in which the predominant m/z ratio detected by the mass spectrometer was 1043 corresponding with the molecular formula of C48H74N12O14. Relative quantification was performed by comparing the peak areas in the samples to those in an extract of a Bacillus subtilis QST713 WB used across different experiments as a reference standard.
For purposes of comparison, an aliquot of the Bacillus subtilis QST713 WB that was present in the ANS combinations was also analyzed for relative lipopeptides levels. The Bacillus subtilis QST713 WB (the “Extracted” sample in FIG. 2) and a supernatant of the Bacillus subtilis QST713 WB removed after centrifugation (the “Supernatant” sample in FIG. 2) were analyzed via LC-MS. […]

Another series relates to Botrytis cinerea. In words: Botrytis cinerea disease control assay on treated plants inoculated with spore suspension. It is filed as in vivo. The settings on record: Example 1; bell pepper plants. How it is done:
Subsequently, the plants were inoculated with a spore suspension of Botrytis cinerea. Several days later when disease was evident in the untreated control plants the plants were evaluated for percent disease control. The results shown in Table 1 are the average values of four independent measurements. A relatively high disease pressure affecting 100% of plants in the untreated control group was present. Percent disease control was scored with 0% indicating no difference in disease from the untreated control plants and 100% indicating no observable disease in the plants. […]
Bacillus subtilis QST713 WB and BC were prepared as described in the previous examples. […] Subsequently, the plants were inoculated with a spore suspension of Botrytis cinerea and scored for percent disease control when disease was evident in 100% of the untreated control plants. […]
Bacillus subtilis QST713 WB was prepared as described in the previous examples. […] Four replicate measurements of disease control were evaluated for each treatment, and the average values are presented in the plot shown in FIG. 4.
Each of the combinations was also evaluated for antifungal activity using the Botrytis cinerea assay described in the previous examples.

In the case of “sodium diisopropyl naphthalene sulfonate [ANS]”, in series [1] (3% ANS in WB compared with 3% Adjuvant 1), the “relative amounts of iturins in the supernatant” value is given as “about two to three times greater”. Further, in series [1] (increase from 3% to 5% of ANS, WB and BC), the “lipopeptides in the supernatants, in words” value is reported as “corresponding increase of lipopeptides”. Also, the “antifungal activity / disease control, in words” value in the series with Botrytis cinerea is reported as “no observable disease control”.
